Data as given in US20260124215A1, “METHODS OF TREATMENT OF INTESTINAL INFECTIONS” (THE FRANCIS CRICK INSTITUTE LIMITED, priority 2022, published 2026).

Assays:
[1] = tested on: Cryptosporidium parvum; assay: In vitro IC50 curves in Cryptosporidium-infected HCT-8 intestinal epithelial cell monolayers (imaging of total and female parasites); assay type: cell-based; details: infected intestinal epithelial cells; development measured by % female parasites in total parasites; figure legends
Method: HCT-cells (ATCC; CCL-244) were seeded in a 96-well plate at a density of 30,000 cells/well in complete media (RPMI with 10% FCS) and allowed to grow for 48 hours. Cryptosporidium parvum oocysts (Bunchgrass Farms; Dreary Idaho, USA) were prepared for infection by bleach treating (1% sodium hypochlorite) on ice for 5 minutes to remove bacterial contaminants, followed by a wash step and incubation in 0.75% sodium taurocholate for 10 minutes at 37° C. to trigger excystation. Oocysts were resuspended in infection media (RPMI with 1% FCS) and added to cells in 100 uL media (20,000 oocysts/well). A 10 mM solution of lapaquistat acetate (MedChem Express; Cat. No. HY-16274-1 mg) was created using DMSO as the solvent. From this stock, a half-logarithmic (3.16-fold) dilution series was created in infection media, at 2× the intended final concentration. 3 hours post-infection, 100 uL of each drug dilution was added to the wells. Each drug concentration comprised 6 technical replicates. […] The plate was then imaged using a Cytation cell imaging multimode reader (BioTek) to count host nuclei, total number of parasites, and the number of female parasites among them. […]

[2] = tested on: Cryptosporidium; details: malnourished and immunocompromised patients; cited from earlier work
[3] = tested on: Cryptosporidium parasites; assay: Lapaquistat/Lovastatin combination in Cryptosporidium-infected HCT-8 cells (infection ratio, Opera Phenix); assay type: cell-based; details: HCT-8, 48 hours of infection, infection ratio = number of parasites/number of host cells, drug alone, read-out: IC50 (ability to limit Cryptosporidium growth)
Method: Intestinal epithelial cells (HCT-8) were infected with Cryptosporidium parasites and treated with increasing concentrations of Lapaquistat acetate or Lovastatin, either alone or in combination. After 48 hours of infection, cells were then fixed and stained with a lectin that specifically marks parasites and a Hoechst dye that specifically labels DNA. Cells and parasites were then visualized with an Opera Phenix imaging microscope and infection ratio was calculated as number of parasites/number of host cells.

With `F/C(COc1ccc2c(c1)[nH]c1ccccc12)=C1/CN2CCC1CC2` [YM-53601] the “efficacy against parasite growth and parasite development” value [1] was “show efficacy”.

In the case of `CC(=O)Oc1ccccc1C(=O)Nc1ncc([N+](=O)[O-])s1` [nitazoxanide], the efficacy in patients [2] is given as “limited efficacy”.

With `CC[C@H](C)C(=O)O[C@H]1C[C@@H](C)C=C2C=C[C@H](C)[C@H](CC[C@@H]3C[C@@H](O)CC(=O)O3)[C@H]21` [Lovastatin] the IC50 [3] was 4.1 µM.
